Each molecule was assayed against neuraminidase of Tamiflu-resistant novel influenza virus (point mutation H→Y) (Influenza A virus, UniProt C3W5S3, H275Y).

Row | Compound | Inhibitory activity against neuraminidase of Tamiflu-resistant novel influenza virus, in words
1 | COc1c(C)c(O)c(C)c(O)c1C(=O)/C=C/c1ccc(O)cc1 [Compound 4, 4,2′,4′-trihydroxy-6′-methoxy-3′,5′-dimethylchalcone] | excellent inhibitory activity
2 | COc1c(C)c(O)c(C)c(O)c1C(=O)/C=C/c1ccccc1 [Compound 5, 2′,4′-dihydroxy-6′-methoxy-3′,5′-dimethylchalcone] | excellent inhibitory activity
3 | COc1cc(O)c(C)c(O)c1C(=O)/C=C/c1ccccc1 [Compound 8, 2′,4′-dihydroxy-3′-methyl-6′-methoxychalcone] | excellent inhibitory activity
4 | COc1c(C)c(O)c(C)c(O)c1C(=O)/C=C/c1ccccc1O [Compound 14, 2,2′,4′-trihydroxy-6′-methoxy-3′,5′-dimethylchalcone] | excellent inhibitory activity
